Test results from ChEMBL document CHEMBL1629620 (Antimicrob Agents Chemother, 2009).

Tested on: Vaccinia virus
Test: Antiviral activity against J2R gene deficient Vaccinia virus harboring VVTK::luc infected in HFF assessed as reduction of plaque formation after 3 days
Type: functional, organism-based
Settings: Orthopoxvirus vaccinia, 72 h

Compound `O=c1[nH]c(=O)n([C@H]2C[C@H](O)[C@@H](CO)O2)cc1I` [IDOXURIDINE] has an EC50 of 7.1 µM.
In the case of `Nc1ccn(C[C@@H](CO)OCP(=O)(O)O)c(=O)n1.O.O` [CIDOFOVIR], the EC50 is reported as 9.4 µM.
In the case of `O=c1[nH]c(=O)n([C@H]2C[C@H](O)[C@@H](CO)S2)cc1I`, the EC50 is reported as 0.3 µM.
